Experimental data: patent US11147797B2, “Photodynamic therapeutic compounds and photodynamic methods of treatment” (SALT AND LIGHT PHARMACEUTICALS PTY. LTD., priority 2016, dated 2021)

Columns and labels:
[1] = system: Ras-Raf binding; assay: Ras activation ELIZA kit assay (chemiluminescent)
Protocol: 1.5.2 ELIZA Assay: Another method to detect the inhibition of the Representative Compounds used a Ras activation ELIZA kit (Merck Millipore, Cat no 17-497). The protocol was in accordance with the manual provided with the kit. The inhibition was measured using a Chemiluminescent imaging system. The known inhibitor Kobe0065 was purchased from Focus Biosciences, Australia (www.focusbio.com.au) and used as the positive control.

[2] = system: binding between Ras and Ras-binding domain (RBD) of Rafl; assay: Ras pulldown with inhibitor interference (Active Ras PullDown and Detection Kit, Western blot)
Description: 1.5.1 Ras pulldown with inhibitor interference: Inhibition of compounds on binding between Ras and Ras-binding domain (RBD) of Rafl was firstly analysed using Active Ras PullDown and Detection Kit (Thermofisher Scientific, Catalogue no 16117). The protocol was in accordance with the manual supplied with the kit. Western blot analysis was used to measure the inhibition. The known Inhibitor Kobe0065 was purchased from Focus Biosciences, Australia (www.focusbio.com.au) and used as the positive control.

[3] = Absorption spectrum; assay type: physicochemical; conditions: compound 10 μM; long wavelength range
Protocol: 1.4 Absorption spectrum: The absorption spectra of the Representative Compounds were acquired. The concentration of compound was 10 μM.

[4] = system: HCT-116 cells; assay: Cell proliferation assay (Cell Titre-Blue Cell Viability Assay); assay type: cell-based; conditions: Homo sapiens; HCT-116 colon-cancer cell line; FIG. 9, FIG. 10; read-out: IC50, inhibition of cell growth of HCT-116
Protocol: 1.8 Cells: Human cell lines were obtained from the NIH cell culture and cultured in media recommended by supplier.
1.9: Cell Proliferation Assays: Cells (2-3000) were seeded in a 96-well plate and cultured in McCoy's 5 containing 10% (vol/vol) FBS in the presence of one of compounds. Viable cell numbers were measured using a fluorometric kit (“Cell Titre-Blue Cell Viability Assay”: Promega Inc, USA). The viable cells convert blue colour dye to red/pink after incubating at 37 degrees with 5% CO2.

Ras-Raf inhibition, ELIZA ([1]; 10 uM compound) | Ras-Raf inhibition, ELIZA ([1]; 50 uM compound) | inhibition in Ras activation ELIZA assay compared with Ras pulldown assay ([1]; in words) | IC50 ([2]; estimated from Table 2, read-out: inhibition IC50, Ras pulldown assay) | absorption band [3] | IC50 [4] | SMILES | IC50 ([1]; estimated from Table 2, read-out: inhibition IC50, Ras activation ELIZA assay) | Ras-Raf inhibition, Ras pulldown ([2]; 10 uM compound) | Ras-Raf inhibition, Ras pulldown ([2]; 50 uM compound)
34.61% | 35.73% | much weaker | 10 to 50 µM | – | – | C1=Cc2nc1c(-c1ccncc1)c1ccc([nH]1)c(-c1ccncc1)c1nc(c(-c3ccncc3)c3ccc([nH]3)c2-c2ccncc2)C=C1 [Representative Compound 1] | – | 0% | 76.5%
35.2% | 13.4% | – | – | 637 nm | 20 to 25 µM | C[n+]1cccc(-c2c3nc(c(-c4ccccc4)c4ccc(cc5nc(c(-c6ccccc6)c6ccc2[nH]6)C=C5)[nH]4)C=C3)c1.[I-] [Representative Compound 10, 3-(10,20-diphenylporphyrin-5-yl)-1-methylpyridin-1-ium iodide] | – | – | –

SMILES | Ras-Raf inhibition, ELIZA ([1]; 10 uM compound) | Ras-Raf inhibition, ELIZA ([1]; 50 uM compound) | inhibition in Ras activation ELIZA assay compared with Ras pulldown assay ([1]; in words) | IC50 ([2]; estimated from Table 2, read-out: inhibition IC50, Ras pulldown assay) | absorption band [3] | IC50 [4] | IC50 ([1]; estimated from Table 2, read-out: inhibition IC50, Ras activation ELIZA assay) | Ras-Raf inhibition, Ras pulldown ([2]; 10 uM compound) | Ras-Raf inhibition, Ras pulldown ([2]; 50 uM compound)
Cc1ccc(NC(=S)NNc2c([N+](=O)[O-])cc(C(F)(F)F)cc2[N+](=O)[O-])cc1Cl [Kobe0065, reference compound] | 66.8% | 73.11% | – | – | – | – | < 10 µM | 0% | 76%
